Where two headings read alike, the source gives them in different places.
Legend:
[1] = tested on: frataxin protein in GM15850 FRDA cells; test: Western blot of frataxin protein; assay type: cell-based, human; conditions: 1-2 μM for 7 days, SDS-PAGE and western blot
Description: Since the primary transcripts from FRDA frataxin genes contain long stretches of GAA repeat RNA sequence, it is conceivable that this RNA will not be correctly processed into mature frataxin mRNA and frataxin protein will not be produced. To test whether polyamide FA 1 leads to increased levels of frataxin protein in treated lymphoid cells, total cell extracts from polyamide-treated (1-2 μM for 7 days) and untreated GM15851 control and GM15850 FRDA cells were subjected to SDS-PAGE, and the corresponding blots were probed with anti-frataxin or anti-actin antibodies. SDS-PAGE (i.e., sodium dodecylsulfate-polyacrylamide gel electrophoresis) was conducted by standard methods well known in the art.
Western Blot Analysis. Total cell extracts were used for SDS-PAGE and western blotting with antibodies to human frataxin (Chemicon) or actin (Santa Cruz Biotechnology) as a control for cell number and protein loading. Signals were detected by chemiluminescence after probing the blot with HRP-conjugated secondary antibody (Supersignal West, Pierce). To quantify the relative levels of proteins, autoradiograms (within the linear response range of X-ray film) were converted into digital images and the signals quantified using Molecular Dynamics ImageQuant software.

[2] = target: GAA·TTC duplex repeats in the frataxin gene; radiolabeled PCR product containing a (GAA)6 sequence; test: Quantitative DNase I footprinting on (GAA)6 DNA; assay type: binding
Source text: Targeting GAA Repeat DNA with Polyamides. β-Alanine linked polyamides FA1-FA6 were synthesized (see Example 6) with sequence, theoretical DNA binding site, theoretical DNA binding site SEQ ID NO: ______) and binding affinity as shown in Table 1. […] Those of skill in the art will recognize that this value may be an underestimation of the affinity of this molecule for GAA repeat DNA since the KD measurements are limited by a minimum DNA concentration of ˜2 pM in the binding reaction. Radiolabeling of nucleic acid incorporated γ^32P ATP and polynucleotide kinase used standard procedures.
Polyamlde Synthesis and Characterization. Polyamides were synthesized by solid phase methods (Urbach & Dervan, Id.; Baird & Dervan, 1996, J. Am. Chem. Soc. 118:6141-6146) and their identity and purity verified by MALDI-TOF MS and analytical HPLC, using methods well known in the art. Fluorescent conjugates were prepared by coupling BODIPY (Molecular Probes) to the carboxyl-terminus (Best et al., 2003, Proc. Natl. Acad. Sci. U.S.A. 100:12063-12068). Binding affinities for match and mismatch sites were determined by quantitative DNase I footprinting (Trauger & Dervan, Id). A plasmid harboring six GAA repeats was constructed by cloning the oligonucleotide
in the pCR2.1 TOPO vector (Invitrogen, Calif.), and a 117 bp singly end-labeled PCR product was generated from this plasmid with the following oligonucleotides:
where the second oligonucleotide was labeled with γ-^32P ATP and polynucleotide kinase, using standard procedures, to generate a PCR product labeled on the GAA strand. A 204 bp singly end-labeled PCR product was derived from plasmid pMP142 DNA, containing 33 GAA repeats (Ohshima et al., Id.), with following oligonucleotides: […]

[3] = tested on: frataxin mRNA in GM15850 FRDA lymphoid cell line; test: qRT-PCR of frataxin mRNA, FRDA cell line; assay type: cell-based, human; conditions: for effect on frataxin mRNA levels, in words: GM15850 FRDA cell line, 7 days incubation
Source text: (§1) GAA Specific Polyamides Up Regulate Frataxin mRNA and Protein. To assess whether polyamides alleviate transcription inhibition caused by expanded GAA repeats in the frataxin gene, quantitative real time/reverse transcriptase PCR (qRT-PCR) was used to monitor frataxin mRNA levels in the GM15850 and GM15851 lymphoid cell lines described above; levels of glyceraldehyde 3-phosphate dehydrogenase (GAPDH) mRNA were used as an internal control for each RNA sample; see Example 8. No differences in GAPDH were found between the two cell lines. […] No changes in frataxin mRNA levels were observed on shorter incubation times.
Cell Culture. Epstein Barr virus transformed lymphoblast cell lines GM15850 from a FRDA patient (alleles with 650 and 1030 GAA repeats in the frataxin gene, from the Coriell Cell Repository, Camden, N.J.), and GM15851 from an unaffected sibling (normal range of repeats), were propagated in RMPI 1640 medium with 2 mM L-glutamine and 15% fetal bovine serum at 37° C. in 5% CO2. Cell growth and morphology were monitored by phase contrast microscopy and viability by trypan blue exclusion and an ATP assay (ApoSENSOR™, BioVision). Polyamides were added directly to the culture medium in PBS. Nuclear localization of the polyamides was verified by deconvolution microscopy, by methods well known in the art (see e.g., Dudouet et al., Chem. Biol., 2003, 10: 859-867).
(§2) Real-Time Quantitative RT-PCR. Real-time quantitative RT-PCR (qRT-PCR) analysis was performed essentially as previously described (Chuma, et al., 2003, Hepatology 37:198-207), using the following primers for the frataxin gene: […]
(§3) RNA was standardized by quantification of GAPDH mRNA (Pattyn et al., 2003, Nucleic Acids Res. 31:122-123), and all values are expressed relative to GAPDH. qRT-PCR was performed using iScript One-Step RT-PCR kit with SYBR green (Biorad). Statistical analysis was performed on three independent quantitative RT-PCR experiments for each RNA sample.

[4] = tested on: mismatch DNA sequence 5′-GGAGGAGGTGGAGGAGGA-3′ from the erbB2 (Her2-neu) promoter; test: DNase I footprinting on mismatch DNA; assay type: binding, human; conditions: polyamide concentrations up to 100 nM
Description: Two additional molecules, FA5 [(ImPyβ)4ImβDp] and FA6 [(ImPyβ)5ImβDp], were synthesized in order to target longer regions of GAA repeats in duplex DNA; i.e., (AAG)5 (SEQ ID NO: ______) and (AAG)6 (SEQ ID NO: ______) respectively. […] As another test for sequence specificity, footprinting experiments with FA1 and FA3 and a radiolabeled DNA fragment containing a mismatch DNA sequence 5′-GGAGGAGGTGGAGGAGGA-3′ (SEQ ID NO: ______) were performed.
The first oligonucleotide shown was radiolabeled as above to generate a PCR product labeled on the GAA strand. A 150 bp PCR product containing a (GGA•TCC)6 mismatch sequence was derived from the erbB2 (Her2-neu) promoter in human genomic DNA with the following oligonucleotides: […]

[5] = tested on: frataxin mRNA in GM15851 normal lymphoid cell line; test: qRT-PCR of frataxin mRNA, normal cell line; assay type: cell-based, human
Source text: as §1
Cell Culture. […] Cell growth and morphology were monitored by phase contrast microscopy and viability by trypan blue exclusion and an ATP assay (ApoSENSOR™, BioVision). […]
as §2, §3

[6] = (GAA)6 DNA, values in text, read-out: apparent dissociation constant (KD)
[7] = quantitative DNase I footprinting, mean and standard deviation, minimum of two determinations, read-out: Binding affinity (KD)

## CN(C)CCCNC(=O)CCNC(=O)c1nc(NC(=O)CCNC(=O)c2cc(NC(=O)c3nc(NC(=O)CCNC(=O)c4cc(NC(=O)c5nccn5C)cn4C)cn3C)cn2C)cn1C [FA1, ImPyβImPyβImβDp]
[1]
  increase in frataxin protein: 2-3 fold
[2]; [6]
  Kd: 0.1 nM
[2]; [7]
  Kd: 0.11 ± 0.02 nM
[3]; GM15850, 2 μM
  frataxin mRNA as % of the level in the normal cell line: ≤ 45%
  range of fold increases of frataxin mRNA in numerous experiments: 2.0 to 3.6 fold
[3]; GM15850, 2 μM, 7 days, relative to GAPDH
  increase of frataxin mRNA level: 2.5 fold
[3]
  effect on frataxin mRNA levels, in words: increased frataxin mRNA levels
[3]; after induction 7 days, transfer to fresh medium lacking polyamide
  time for frataxin mRNA to decrease to pre-treatment levels after removal of polyamide: 96 h
[3]; compared with 2 μM, 7-day incubation
  effect of higher concentrations or longer incubation on frataxin transcription: Neither higher concentrations of FA1 nor longer incubations times increased frataxin transcription
[4]
  binding to mismatch DNA sequence: Neither FA1 nor FA3 bound this DNA sequence
[5]
  effect on frataxin mRNA levels, in words: did not change frataxin mRNA levels

## CN(C)CCCNC(=O)CCNC(=O)c1cc(NC(=O)CCNC(=O)c2nc(NC(=O)c3nc(NC(=O)CCNC(=O)c4cc(NC(=O)c5nccn5C)cn4C)cn3C)cn2C)cn1C [FA2, ImPyβImImβPyβDp]
[2]; [6]
  Kd: > 100 nM
[2]; mismatch vs match polyamide (FA2 vs FA1, FA4 vs FA3)
  reduction of binding affinity vs match polyamide: greater than three orders of magnitude
[2]; [7]
  Kd: > 100 nM
[3]
  effect on frataxin mRNA levels, in words: modest increase in frataxin transcription
[5]
  effect on frataxin mRNA levels, in words: no change in frataxin mRNA
